Reference: US10064804B2, “Polymeric nitrones and their use in personal care” (Dow Global Technologies LLC, priority 2014, dated 2018)

Test: Oxygen Radical Absorbance Capacity (ORAC) antioxidant potential
Settings: ORAC test, test solutions at 100 micromolar; calculated from ORAC values relative to Trolox
Experimental: Antioxidant potential is evaluated using the Oxygen Radical Absorbance Capacity (ORAC) protocol. ORAC is a chemical in-vitro method based on the hydrogen atom transfer (HAT) mechanism (see N. Re et al., Free Radical Biology & Medicine, 26 (9/10), 1231 (1997)). ORAC measures antioxidant inhibition of peroxyl radical induced oxidations and thus reflects classical radical chain breaking antioxidant activity by H atom transfer. In this assay, the peroxyl radical reacts with a fluorescent probe to form a non-fluorescent product. This is quantitated using a fluorescence measurement. Antioxidant capacity is determined by decreased rate and amount of product formed over time. This assay depends upon the free radical damage to the fluorescent probe resulting in the change in its fluorescence intensity. The change of fluorescence intensity is an indicator of the degree of free radical damage. In the presence of an antioxidant, the inhibition of free radical damage is reflected in higher fluorescence intensity and can be measured as antioxidant capacity against the free radicals. The uniqueness of ORAC assay is that the reaction is driven to completion. This allows calculation of the area under the curve (AUC) and gives an absolute quantitation of antioxidancy as opposed to relative measurements in many other assays.
As noted, the longer it takes to observe a decrease in fluorescence, the higher the antioxidant (AO) potential. From the AUC for a given antioxidant, the AUC for blank is subtracted to give its ORAC value. The concentration of AO needed to give the same AUC values as Trolox is calculated and used to represent the Trolox equivalent AO Capacity (TEAC). Trolox is ((±)-6-Hydroxy-2,5,7,8-tetramethylchromane-2-carboxylic acid, CAS #53188-07-1), and is used as an internal control. […]
The inventive stilbene-pendant nitrones in the ORAC test solutions were at a concentration of 100 micromolar, while the concentrations of Trolox, Vitamin C, Vitamin E, BHT, PBN+BHT, and VAL-IPHA were at 100 micromolar. The TEAC values calculated from the ORAC values are listed the Table 2.

Compound | TEAC (Trolox equivalent AO Capacity)
CC(C)(C)/[N+]([O-])=C/c1ccccc1 [PBN, 2-Phenyl-N-tert-butylnitrone] | not very high
O=C1O[C@H]([C@@H](O)CO)C(O)=C1O [Vitamin C] | 0.76
Vitamin E | 0.13
